Legend:
Type in all cases: in vivo
[1] = tested on: Italian ryegrass (Lolium multiflorum); test: Test B pre-/postemergence plant response
Method in brief: (§1)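 Steps: plant seeds in loam soil–sand mix; spray soil preemergence, and in parallel spray 2–10 cm one- to two-leaf plants postemergence; hold ~10 days in greenhouse; visually rate injury against untreated controls (0 = no effect, 100 = complete control).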

kochia (Kochia scoparia) = test: Test B pre-/postemergence plant response
Method in brief: as §1

[2] = tested on: ragweed (common ragweed, Ambrosia elatior); test: Test B pre-/postemergence plant response
Method in brief: as §1

[3] = tested on: barnyardgrass (Echinochloa crus-galli); test: Test C flooded paddy test plant response; settings: Flood, 250 g ai/ha; scale of 0 to 100 where 0 is no effect and 100 is complete control; 13 to 15 days
Method in brief: (§2)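 Scored visually on a 0–100 scale (100 = complete control) against untreated plants 13 to 15 days after treatment in the greenhouse. Compounds went into paddy water of pots flooded to 3 cm, holding 2-leaf-stage plants.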

[4] = tested on: ducksalad (Heteranthera limosa); test: Test C flooded paddy test plant response; settings: Flood, 250 g ai/ha; scale of 0 to 100 where 0 is no effect and 100 is complete control; 13 to 15 days
Method in brief: as §2

rice (Oryza sativa) = test: Test C flooded paddy test plant response; settings: Flood, 250 g ai/ha; scale of 0 to 100 where 0 is no effect and 100 is complete control; 13 to 15 days
Method in brief: as §2

[5] = tested on: small-flower umbrella sedge (Cyperus difformis); test: Test C flooded paddy test plant response; settings: Flood, 250 g ai/ha; scale of 0 to 100 where 0 is no effect and 100 is complete control; 13 to 15 days
Method in brief: as §2

[6] = tested on: barnyardgrass (Echinochloa crus-galli); test: Test D pre-/postemergence plant response
Method in brief: (§3)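 Test chemicals were formulated in a non-phytotoxic solvent mixture containing surfactant and applied either preemergence to seeds in loam–sand soil or postemergence to plants 2 to 18 cm tall (1- to 4-leaf stage). Response was rated visually against controls after 13 to 15 days, from 0 (none) to 100 (complete control).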

[7] = tested on: blackgrass (Alopecurus myosuroides); test: Test D pre-/postemergence plant response
Method in brief: as §3

[8] = tested on: giant foxtail (Setaria faberii); test: Test D pre-/postemergence plant response
Method in brief: as §3

[9] = tested on: johnsongrass (Sorghum halepense); test: Test D pre-/postemergence plant response
Method in brief: as §3

[10] = tested on: oilseed rape (Brassica napus); test: Test D pre-/postemergence plant response
Method in brief: as §3

[11] = tested on: pigweed (Amaranthus retroflexus); test: Test D pre-/postemergence plant response
Method in brief: as §3

[12] = tested on: velvetleaf (Abutilon theophrasti); test: Test D pre-/postemergence plant response
Method in brief: as §3

[13] = 31 g ai/ha, Preemergence, 0 to 100 scale where 0 is no effect and 100 is complete control
[14] = 125 g ai/ha, postemergence, 0 to 100 scale, 0 no effect, 100 complete control
[15] = Postemergence, 31 g ai/ha, 0 to 100 scale (0 no effect, 100 complete control)
[16] = Preemergence, 125 g ai/ha, 0 to 100 scale (0 no effect, 100 complete control)
[17] = Postemergence, 31 g ai/ha, scale 0 to 100 (0 no effect, 100 complete control)
[18] = Postemergence, 62 g ai/ha, scale 0 to 100, 0 no effect, 100 complete control
[19] = Postemergence, 125 g ai/ha, scale 0 to 100, 0 no effect, 100 complete control
[20] = Preemergence, 16 g ai/ha, scale 0 to 100 (0 no effect, 100 complete control)
[21] = Preemergence, 31 g ai/ha, scale 0 to 100 (0 no effect, 100 complete control)
[22] = Preemergence, 62 g ai/ha, scale 0 to 100 (0 no effect, 100 complete control)

## Cc1cc(-c2c(F)cccc2Oc2ncc(Cl)cn2)on1 [Compound 229]
[1]; [13]
  Plant response rating, Ryegrass, Italian: 0
[1]; [14]
  Plant response rating, Ryegrass, Italian: 20
[1]; [15]
  Plant response rating, Ryegrass, Italian: 0
[1]; [16]
  Ryegrass, Italian plant response rating: 30
Kochia (Kochia scoparia); [13]
  Plant response rating, Kochia: 80
Kochia (Kochia scoparia); [14]
  Plant response rating, Kochia: 100
Kochia (Kochia scoparia); [15]
  Plant response rating, Kochia: 90
Kochia (Kochia scoparia); [16]
  Kochia plant response rating: 100
[2]; [13]
  Plant response rating, Ragweed: 70
[2]; [14]
  Plant response rating, Ragweed: 100
[2]; [15]
  Plant response rating, Ragweed: 100
[2]; [16]
  Ragweed plant response rating: 90
[3]
  Barnyardgrass plant response rating: 55
[4]
  Ducksalad plant response rating: 90
Rice (Oryza sativa)
  Rice plant response rating: 15
[5]
  Sedge, Umbrella plant response rating: 90
[6]; Postemergence, 16 g ai/ha
  Plant response rating (scale 0 to 100), Barnyardgrass: 5
[6]; [17]
  Barnyardgrass plant response rating: 5
[6]; [18]
  Plant response rating, Barnyardgrass: 5
[6]; [19]
  Plant response rating, Barnyardgrass: 10
[6]; Preemergence, 125 g ai/ha
  Plant response rating (scale 0 to 100), Barnyardgrass: 100
[6]; [20]
  Plant response rating, Barnyardgrass: 15
[6]; [21]
  Plant response rating, Barnyardgrass: 55
[6]; [22]
  Plant response rating, Barnyardgrass: 65
[7]; Postemergence, 16 g ai/ha
  Plant response rating (scale 0 to 100), Blackgrass: 0
[7]; [17]
  Blackgrass plant response rating: 10
[7]; [18]
  Plant response rating, Blackgrass: 15
[7]; [19]
  Plant response rating, Blackgrass: 10
[7]; Preemergence, 125 g ai/ha
  Plant response rating (scale 0 to 100), Blackgrass: 85
[7]; [20]
  Plant response rating, Blackgrass: 15
[7]; [21]
  Plant response rating, Blackgrass: 15
[7]; [22]
  Plant response rating, Blackgrass: 70
[8]; Postemergence, 16 g ai/ha
  Plant response rating (scale 0 to 100), Foxtail, Giant: 0
[8]; [17]
  Foxtail, Giant plant response rating: 5
[8]; [18]
  Plant response rating, Foxtail, Giant: 5
[8]; [19]
  Plant response rating, Foxtail, Giant: 15
[8]; Preemergence, 125 g ai/ha
  Plant response rating (scale 0 to 100), Foxtail, Giant: 98
[8]; [20]
  Plant response rating, Foxtail, Giant: 5
[8]; [21]
  Plant response rating, Foxtail, Giant: 70
[8]; [22]
  Plant response rating, Foxtail, Giant: 90
[9]; Postemergence, 16 g ai/ha
  Plant response rating (scale 0 to 100), Johnsongrass: 0
[9]; [17]
  Johnsongrass plant response rating: 0
[9]; [18]
  Plant response rating, Johnsongrass: 0
[9]; [19]
  Plant response rating, Johnsongrass: 25
[9]; Preemergence, 125 g ai/ha
  Plant response rating (scale 0 to 100), Johnsongrass: 70
[9]; [20]
  Plant response rating, Johnsongrass: 10
[9]; [21]
  Plant response rating, Johnsongrass: 10
[9]; [22]
  Plant response rating, Johnsongrass: 45
[10]; Postemergence, 16 g ai/ha
  Plant response rating (scale 0 to 100), Oilseed Rape: 45
[10]; [17]
  Oilseed Rape plant response rating: 70
[10]; [18]
  Oilseed Rape plant response rating: 60
[10]; [19]
  Plant response rating, Oilseed Rape: 80
[10]; Preemergence, 125 g ai/ha
  Plant response rating (scale 0 to 100), Oilseed Rape: 100
[10]; [20]
  Plant response rating, Oilseed Rape: 90
[10]; [21]
  Plant response rating, Oilseed Rape: 100
[10]; [22]
  Plant response rating, Oilseed Rape: 100
[11]; Postemergence, 16 g ai/ha
  Plant response rating (scale 0 to 100), Pigweed: 55
[11]; [17]
  Pigweed plant response rating: 60
[11]; [18]
  Pigweed plant response rating: 70
[11]; [19]
  Plant response rating, Pigweed: 80
[11]; Preemergence, 125 g ai/ha
  Plant response rating (scale 0 to 100), Pigweed: 100
[11]; [20]
  Plant response rating, Pigweed: 100
[11]; [21]
  Plant response rating, Pigweed: 100
[11]; [22]
  Plant response rating, Pigweed: 100
[12]; Postemergence, 16 g ai/ha
  Plant response rating (scale 0 to 100), Velvetleaf: 15
[12]; [17]
  Velvetleaf plant response rating: 60
[12]; [18]
  Velvetleaf plant response rating: 45
[12]; [19]
  Plant response rating, Velvetleaf: 70
[12]; Preemergence, 125 g ai/ha
  Plant response rating (scale 0 to 100), Velvetleaf: 100
[12]; [20]
  Plant response rating, Velvetleaf: 70
[12]; [21]
  Plant response rating, Velvetleaf: 90
[12]; [22]
  Plant response rating, Velvetleaf: 100

## Cc1cc(-c2c(F)cccc2Oc2ncc(Br)cn2)on1 [Compound 230]
[1]; [13]
  Plant response rating, Ryegrass, Italian: 0
[1]; [14]
  Plant response rating, Ryegrass, Italian: 0
[1]; [15]
  Plant response rating, Ryegrass, Italian: 0
[1]; [16]
  Ryegrass, Italian plant response rating: 0
Kochia (Kochia scoparia); [13]
  Plant response rating, Kochia: 60
Kochia (Kochia scoparia); [14]
  Plant response rating, Kochia: 100
Kochia (Kochia scoparia); [15]
  Plant response rating, Kochia: 80
Kochia (Kochia scoparia); [16]
  Kochia plant response rating: 100
[2]; [13]
  Plant response rating, Ragweed: 20
[2]; [14]
  Plant response rating, Ragweed: 100
[2]; [15]
  Plant response rating, Ragweed: 70
[2]; [16]
  Ragweed plant response rating: 80
[3]
  Barnyardgrass plant response rating: 40
[4]
  Ducksalad plant response rating: 85
Rice (Oryza sativa)
  Rice plant response rating: 20
[5]
  Sedge, Umbrella plant response rating: 85
[6]; Postemergence, 16 g ai/ha
  Plant response rating (scale 0 to 100), Barnyardgrass: 5
[6]; [17]
  Barnyardgrass plant response rating: 5
[6]; [18]
  Barnyardgrass plant response rating: 10
[6]; [19]
  Plant response rating, Barnyardgrass: 5
[7]; Postemergence, 16 g ai/ha
  Plant response rating (scale 0 to 100), Blackgrass: 0
[7]; [17]
  Blackgrass plant response rating: 10
[7]; [18]
  Blackgrass plant response rating: 10
[7]; [19]
  Plant response rating, Blackgrass: 10
[8]; Postemergence, 16 g ai/ha
  Plant response rating (scale 0 to 100), Foxtail, Giant: 5
[8]; [17]
  Foxtail, Giant plant response rating: 5
[8]; [18]
  Foxtail, Giant plant response rating: 10
[8]; [19]
  Plant response rating, Foxtail, Giant: 10
[9]; Postemergence, 16 g ai/ha
  Plant response rating (scale 0 to 100), Johnsongrass: 0
[9]; [17]
  Johnsongrass plant response rating: 0
[9]; [18]
  Johnsongrass plant response rating: 5
[9]; [19]
  Plant response rating, Johnsongrass: 5
[10]; Postemergence, 16 g ai/ha
  Plant response rating (scale 0 to 100), Oilseed Rape: 50
[10]; [17]
  Oilseed Rape plant response rating: 60
[10]; [18]
  Oilseed Rape plant response rating: 75
[10]; [19]
  Plant response rating, Oilseed Rape: 75
[11]; Postemergence, 16 g ai/ha
  Plant response rating (scale 0 to 100), Pigweed: 60
[11]; [17]
  Pigweed plant response rating: 65
[11]; [18]
  Pigweed plant response rating: 70
[11]; [19]
  Plant response rating, Pigweed: 85
[12]; Postemergence, 16 g ai/ha
  Plant response rating (scale 0 to 100), Velvetleaf: 25
[12]; [17]
  Velvetleaf plant response rating: 40
[12]; [18]
  Velvetleaf plant response rating: 55
[12]; [19]
  Plant response rating, Velvetleaf: 65
